Reference: the supplement of paper PMC10307832

Assays:
Experiment in all cases: relative viability (nuclei count vs DMSO), 5 days (fraction); higher = more cells survive
[1] = compound: CCN(CCO)CCCC(C)Nc1ccnc2cc(Cl)ccc12 [Hydroxychloroquine] + Cc1nc(NC(=O)N2CCC[C@H]2C(N)=O)sc1-c1ccnc(C(C)(C)C(F)(F)F)c1 [Alpelisib] (partner 2 µM)
In short: (§1)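 A single step with final 0.05% Triton X-100, 1% formaldehyde and 1 ug/ml Hoechst fixed the cells and stained nuclei 5 days after treatment. Lung cancer cell lines in 1536-well plates had been treated by pin tool the day after seeding with one drug alone or a fixed anchor-drug dose plus five library-drug doses (not always all listed) in √10 steps, and nuclei were counted on 4× images. Relative viability is the ratio of nuclei in treated wells to nuclei in vehicle wells, taken as the median of duplicate plates.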

[2] = compound: CCN(CCO)CCCC(C)Nc1ccnc2cc(Cl)ccc12 [Hydroxychloroquine] + Cc1cc(Nc2cc(N3CCN(C)CC3)nc(Sc3ccc(NC(=O)C4CC4)cc3)n2)n[nH]1 [Tozasertib] (partner 0.1 µM)
In short: as §1

[3] = compound: CCN(CCO)CCCC(C)Nc1ccnc2cc(Cl)ccc12 [Hydroxychloroquine] + Cc1nc(Nc2ncc(C(=O)Nc3c(C)cccc3Cl)s2)cc(N2CCN(CCO)CC2)n1 [Dasatinib] (partner 0.075 µM)
In short: as §1

[4] = compound: CCN(CCO)CCCC(C)Nc1ccnc2cc(Cl)ccc12 [Hydroxychloroquine] + CCNC(=O)c1noc(-c2cc(C(C)C)c(O)cc2O)c1-c1ccc(CN2CCOCC2)cc1 [Luminespib] (partner 0.01 µM)
In short: as §1

Row | Cell Line | relative viability ([1]; first compound 0.5 µM) | relative viability ([1]; first compound 1.581 µM) | relative viability ([1]; first compound 5 µM) | relative viability ([1]; first compound 15.81 µM) | relative viability ([1]; first compound 50 µM) | relative viability ([2]; first compound 0.5 µM) | relative viability ([2]; first compound 1.581 µM) | relative viability ([2]; first compound 5 µM) | relative viability ([2]; first compound 15.81 µM) | relative viability ([2]; first compound 50 µM) | relative viability ([3]; first compound 0.5 µM) | relative viability ([3]; first compound 1.581 µM) | relative viability ([3]; first compound 5 µM) | relative viability ([3]; first compound 15.81 µM) | relative viability ([3]; first compound 50 µM) | relative viability ([4]; first compound 0.5 µM) | relative viability ([4]; first compound 1.581 µM) | relative viability ([4]; first compound 5 µM) | relative viability ([4]; first compound 15.81 µM) | relative viability ([4]; first compound 50 µM)
1 | PC-3 [JPC-3] | 1.01 | 1.04 | 1.06 | 1 | 1.02 | 0.859 | 0.959 | 0.973 | 0.948 | 0.901 | 0.94 | 0.873 | 0.971 | 1.21 | 1.16 | 0.762 | 0.711 | 0.745 | 0.686 | 0.774
2 | PC-14 | 0.782 | 0.858 | 0.951 | 0.892 | 1.01 | 0.58 | 0.537 | 0.54 | 0.544 | 0.55 | 0.232 | 0.199 | 0.253 | 0.213 | 0.29 | 0.17 | 0.151 | 0.17 | 0.173 | 0.154
3 | RERF-LC-KJ | 0.778 | 0.697 | 0.732 | 0.879 | 0.852 | 0.452 | 0.523 | 0.541 | 0.487 | 0.478 | 0.71 | 0.731 | 0.793 | 0.734 | 1.02 | 1.08 | 1.22 | 1.31 | 1.14 | 1.1
4 | SK-LU-1 | 0.964 | 0.852 | 1.05 | 1.06 | 1.03 | 0.367 | 0.339 | 0.325 | 0.342 | 0.323 | 0.214 | 0.168 | 0.174 | 0.16 | 0.17 | 0.21 | 0.209 | 0.21 | 0.205 | 0.187
5 | SK-MES-1 | 0.697 | 0.765 | 1.01 | 0.952 | 0.929 | 1.06 | 0.943 | 1.02 | 1.02 | 0.94 | 0.342 | 0.306 | 0.388 | 0.37 | 0.339 | 0.725 | 0.818 | 0.778 | 0.84 | 0.661
6 | SW 1573 | 0.703 | 0.767 | 0.893 | 0.796 | 0.826 | 0.217 | 0.203 | 0.167 | 0.188 | 0.147 | 0.465 | 0.379 | 0.506 | 0.414 | 0.676 | 0.399 | 0.153 | 0.203 | 0.174 | 0.193
7 | UMC-11 | 0.841 | 0.956 | 0.962 | 1.06 | 1.2 | 0.191 | 0.188 | 0.217 | 0.393 | 0.196 |  | 0.504 | 0.473 | 0.628 | 0.6 |  | 1.01 | 1.05 | 1.1 | 1.04
